Data taken from patent US9840510B1, “Pyrazolo[1,5-a]pyrimidinyl carboxamide compounds and their use in the treatment of medical disorders” (Lysosomal Therapeutics Inc., priority 2016, dated 2017).
Values after ≈ are worked out from the molar mass of the structure shown.

Assay: Compound solubility in water
Assay type: physicochemical

Compound	solubility
COc1cc(-c2cc(C)n3ncc(C(=O)NC(C4CC4)C(F)(F)F)c3n2)ccc1F (centres unmarked) [III-147]	0.4 µg/mL (≈ 0.947 µM)
Cc1cc(-c2ccc(C#N)nc2)nc2c(C(=O)N[C@H](C3CC3)C(F)(F)F)cnn12 [III-367]	0.4 µg/mL (≈ 0.999 µM)
Cc1cc(-c2cc(F)cc(C#N)c2)nc2c(C(=O)N[C@@H](C)C3CC3)cnn12 [III-128]	3 µg/mL (≈ 8.26 µM)
Cc1cc(C)n2ncc(C(=O)N[C@H](C)C3CCCCC3)c2n1 [III-3]	8.7 µg/mL (≈ 29 µM)
Cc1cc(-c2ccccn2)nc2c(C(=O)NC(C3CC3)C(F)(F)F)cnn12 (centres unmarked) [III-36]	0.4 µg/mL (≈ 1.07 µM)
Cc1cc(-c2ccc3nc[nH]c3c2)nc2c(C(=O)NC(C3CC3)C(F)(F)F)cnn12 (centres unmarked) [III-307]	0.3 µg/mL (≈ 0.724 µM)
Cc1cc(C)n2ncc(C(=O)NC3(C4CC4)CC3)c2n1 [III-12]	38.4 µg/mL (≈ 142 µM)
Cc1cc(-c2cncc(F)c2)nc2c(C(=O)N[C@H](C3CC3)C(F)(F)F)cnn12 [III-126]	1.8 µg/mL (≈ 4.58 µM)
COc1cc(-c2cc(C)n3ncc(C(=O)NC(C)C(F)(F)F)c3n2)ccc1F (centres unmarked) [III-148]	1.2 µg/mL (≈ 3.03 µM)
Cc1cc(-c2ccoc2)nc2c(C(=O)NC(C3CC3)C(F)(F)F)cnn12 (centres unmarked) [III-187]	0.5 µg/mL (≈ 1.37 µM)
Cc1cc(-c2ccc(F)cc2C#N)nc2c(C(=O)N[C@H](C)C3CC3)cnn12 [III-153]	4.5 µg/mL (≈ 12.4 µM)
Cc1cc(-c2cc(F)ccc2C#N)nc2c(C(=O)N[C@@H](C)C(F)(F)F)cnn12 [III-350]	0.3 µg/mL (≈ 0.767 µM)
COc1ccncc1-c1cc(C)n2ncc(C(=O)NC(C3CC3)C(F)(F)F)c2n1 (centres unmarked) [III-263]	8.9 µg/mL (≈ 22 µM)
Cc1cc(-c2nc3ccccc3n2C)nc2c(C(=O)NC(C3CC3)C(F)(F)F)cnn12 (centres unmarked) [III-312]	0.3 µg/mL (≈ 0.7 µM)
COc1cc(C#N)cc(-c2cc(C)n3ncc(C(=O)N[C@@H](C)C4CC4)c3n2)c1 [III-129]	0.02 µg/mL (≈ 0.0533 µM)
Cc1cc(-c2cc(C)n3ncc(C(=O)N[C@H](C4CC4)C(F)(F)F)c3n2)on1 [III-343]	1.5 µg/mL (≈ 3.95 µM)
Cc1cc(-c2cccc(C(=O)N(C)C)c2)nc2c(C(=O)NC(C3CC3)C(F)(F)F)cnn12 (centres unmarked) [III-413]	6 µg/mL (≈ 13.5 µM)
Cc1cc(C)n2nc(Cl)c(C(=O)N[C@@H](C)C3CC3)c2n1 [III-34]	10.3 µg/mL (≈ 35.2 µM)
Cc1cc(-c2cccnc2)nc2c(C(=O)N[C@@H](C3CC3)C(F)(F)F)cnn12 [III-89]	10.4 µg/mL (≈ 27.7 µM)
CCc1cc(-c2ccccn2)nc2c(C(=O)NC(C)(C)C(F)(F)F)cnn12 [III-407]	0.09 µg/mL (≈ 0.238 µM)
Cc1cc(-c2cccc(F)c2)nc2c(C(=O)N[C@@H](C)C3CC3)cnn12 [III-56]	1.1 µg/mL (≈ 3.25 µM)
Cc1cc(-c2ccccc2C#N)nc2c(C(=O)N[C@@H](C)C(F)(F)F)cnn12 [III-213]	0.6 µg/mL (≈ 1.61 µM)

Compound	solubility
Cc1cc(-c2cncc(Cl)c2)nc2c(C(=O)N[C@H](C3CC3)C(F)(F)F)cnn12 [III-120]	0.7 µg/mL (≈ 1.71 µM)
Cc1cc(N2C[C@H](c3ccccc3)OC2=O)nc2c(C(=O)NC(C3CC3)C(F)(F)F)cnn12 (some centres unmarked) [III-314]	0.2 µg/mL (≈ 0.435 µM)
C#Cc1cncc(-c2cc(C)n3ncc(C(=O)N[C@@H](C4CC4)C(F)(F)F)c3n2)c1 [III-383]	0.2 µg/mL (≈ 0.501 µM)
Cc1cc(-c2ccc(F)o2)nc2c(C(=O)N[C@H](C)C(F)(F)F)cnn12 [III-334]	2 µg/mL (≈ 5.61 µM)
Cc1cc(-c2cccc(Cl)n2)nc2c(C(=O)NC(C)(C)C3CC3)cnn12 [III-62]	1.2 µg/mL (≈ 3.24 µM)
Cc1cc(C)n2ncc(C(=O)N[C@@H](C)C3CC3)c2n1 [III-1]	27 µg/mL (≈ 105 µM)
C#CC(C)(C)NC(=O)c1cnn2c(C)cc(-c3cccc(Cl)n3)nc12 [III-63]	0.2 µg/mL (≈ 0.565 µM)
Cc1cc(-c2ncccc2F)nc2c(C(=O)NC(C3CC3)C(F)(F)F)cnn12 (centres unmarked) [III-203]	0.07 µg/mL (≈ 0.178 µM)
Cc1cncc(-c2cc(C)n3ncc(C(=O)N[C@H](C4CC4)C(F)(F)F)c3n2)c1 [III-276]	1.8 µg/mL (≈ 4.62 µM)
Cc1cc(-c2cncc(F)c2)nc2c(C(=O)NC(C3CC3)C(F)(F)F)cnn12 (centres unmarked) [III-125]	3.4 µg/mL (≈ 8.64 µM)
Cc1cc(-c2cccc3ncoc23)nc2c(C(=O)NC(C)(C)C(F)(F)F)cnn12 [III-219]	2.7 µg/mL (≈ 6.69 µM)
Cc1cc(N2CC(C(C)C)OC2=O)nc2c(C(=O)NC(C3CC3)C(F)(F)F)cnn12 (centres unmarked) [III-316]	1.3 µg/mL (≈ 3.06 µM)
Cc1cc(N2CCN(C(C)C)C2=O)nc2c(C(=O)NC(C)(C)C(F)(F)F)cnn12 [III-231]	3 µg/mL (≈ 7.27 µM)
Cc1cc(-c2cccc(OC3CC3)c2)nc2c(C(=O)NC(C)C(F)(F)F)cnn12 (centres unmarked) [III-77]	0.3 µg/mL (≈ 0.742 µM)
Cc1cc(-c2nnc(C(C)C)o2)nc2c(C(=O)N[C@H](C3CC3)C(F)(F)F)cnn12 [III-391]	0.3 µg/mL (≈ 0.735 µM)
Cc1cc(N2CC(C(C)C)OC2=O)nc2c(C(=O)NC(c3ccccc3)C(F)(F)F)cnn12 (centres unmarked) [III-313]	0.1 µg/mL (≈ 0.217 µM)
Cc1cc(-c2ccncc2)nc2c(C(=O)NC(C)(C)C3CC3)cnn12 [III-20]	6.3 µg/mL (≈ 18.8 µM)
Cc1ccncc1-c1cc(C)n2ncc(C(=O)NC(C)C(F)(F)F)c2n1 (centres unmarked) [III-281]	12.5 µg/mL (≈ 34.4 µM)
CCc1cc(N2CCN(C(C)C)C2=O)nc2c(C(=O)NC(C)(C)C)cnn12 [III-229]	13.5 µg/mL (≈ 36.2 µM)
COc1cccc(-c2cc(C)n3ncc(C(=O)NC(C)(C)C(F)(F)F)c3n2)c1 [III-405]	1.5 µg/mL (≈ 3.82 µM)
Cc1ncc(-c2cc(C)n3ncc(C(=O)N[C@H](C4CC4)C(F)(F)F)c3n2)cc1F [III-380]	0.3 µg/mL (≈ 0.736 µM)
C#CC(C)(C)NC(=O)c1cnn2c(C)cc(-c3cccc(F)c3)nc12 [III-75]	0.6 µg/mL (≈ 1.78 µM)

Compound	solubility
COc1ccc(-c2cc(C)n3ncc(C(=O)N[C@@H](C)C(F)(F)F)c3n2)cn1 [III-273]	3.4 µg/mL (≈ 8.96 µM)
COCc1cc(-c2cccc(OC)c2)nc2c(C(=O)NC(C)(C)C3CC3)cnn12 [III-79]	0.5 µg/mL (≈ 1.27 µM)
Cc1cc(-c2cccc(C(N)=O)n2)nc2c(C(=O)NC(C3CC3)C(F)(F)F)cnn12 (centres unmarked) [III-161]	1 µg/mL (≈ 2.39 µM)
CCc1cc(-c2ccccn2)nc2c(C(=O)NC(C)C3CC3)cnn12 (centres unmarked) [III-49]	2.5 µg/mL (≈ 7.45 µM)
COc1cc(F)cc(-c2cc(C)n3ncc(C(=O)N[C@@H](C)C4CC4)c3n2)c1 [III-137]	0.8 µg/mL (≈ 2.17 µM)
COc1cc(F)ccc1-c1cc(C)n2ncc(C(=O)NC(C3CC3)C(F)(F)F)c2n1 (centres unmarked) [III-149]	1.1 µg/mL (≈ 2.6 µM)
Cc1cc(-c2ccccc2)nc2c(C(=O)N[C@@H](C)C3CC3)cnn12 [III-136]	5.1 µg/mL (≈ 15.9 µM)
Cc1cc(-c2cncc(C(F)(F)F)c2)nc2c(C(=O)N[C@H](C)C(F)(F)F)cnn12 [III-286]	2.1 µg/mL (≈ 5.03 µM)
Cc1cc(-c2ccc(N3CCOCC3)c(F)c2)nc2c(C(=O)NC(C)C(F)(F)F)cnn12 (centres unmarked) [III-299]	0.5 µg/mL (≈ 1.11 µM)
Cc1cc(-c2cccc(-c3ncco3)c2)nc2c(C(=O)NC(C3CC3)C(F)(F)F)cnn12 (centres unmarked) [III-416]	0.3 µg/mL (≈ 0.68 µM)
COc1c(C#N)cccc1-c1cc(C)n2ncc(C(=O)NC(C)C(F)(F)F)c2n1 (centres unmarked) [III-142]	2.2 µg/mL (≈ 5.45 µM)
Cc1cncc(-c2cc(C)n3ncc(C(=O)NC(C4CC4)C(F)(F)F)c3n2)c1 (centres unmarked) [III-275]	2.6 µg/mL (≈ 6.68 µM)
Cc1cc(-c2cccc(F)n2)nc2c(C(=O)N[C@H](C)C3CC3)cnn12 [III-135]	1.5 µg/mL (≈ 4.42 µM)
Cc1ncc(-c2cc(C)n3ncc(C(=O)NC(C)(C)C4CC4)c3n2)o1 [III-252]	11 µg/mL (≈ 32.4 µM)
CCc1cc(-c2ccccn2)n2ncc(C(=O)NC(C)C(F)(F)F)c2n1 (centres unmarked) [III-51]	14.1 µg/mL (≈ 38.8 µM)
Cc1cc(-c2ccc(F)c(C#N)c2)nc2c(C(=O)NC(C)C(F)(F)F)cnn12 (centres unmarked) [III-159]	3.8 µg/mL (≈ 9.71 µM)
Cc1ncc(-c2cc(C)n3ncc(C(=O)N[C@@H](C4CC4)C(F)(F)F)c3n2)o1 [III-248]	0.7 µg/mL (≈ 1.85 µM)
Cc1cc(-c2cccc(F)c2)nc2c(C(=O)NC(C)(C)C(F)(F)F)cnn12 [III-80]	0.2 µg/mL (≈ 0.526 µM)
Cc1cc(N2CCN(C(C)C)C2=O)nc2c(C(=O)N[C@H](C3CC3)C(F)(F)F)cnn12 [III-327]	32.8 µg/mL (≈ 77.3 µM)
Cc1cc(-c2ccc(Cl)nc2)nc2c(C(=O)N[C@H](C3CC3)C(F)(F)F)cnn12 [III-117]	0.8 µg/mL (≈ 1.95 µM)
Cc1cc(-c2ccncc2)nc2c(C(=O)NC(C)C3CC3)cnn12 (centres unmarked) [III-28]	27.6 µg/mL (≈ 85.9 µM)
Cc1cc(-c2cccc(F)c2C#N)nc2c(C(=O)N[C@@H](C)C(F)(F)F)cnn12 [III-399]	0.1 µg/mL (≈ 0.256 µM)

Compound	solubility
Cc1cc(-c2cccnc2F)nc2c(C(=O)N[C@H](C3CC3)C(F)(F)F)cnn12 [III-114]	2.1 µg/mL (≈ 5.34 µM)
Cc1nc(-c2cc(C)n3ncc(C(=O)N[C@H](C)C(F)(F)F)c3n2)oc1C [III-345]	1 µg/mL (≈ 2.72 µM)
Cc1cc(-c2cc(C)n3ncc(C(=O)N[C@@H](C4CC4)C(F)(F)F)c3n2)sn1 [III-216]	0.9 µg/mL (≈ 2.28 µM)
CCc1cc(-c2ccccn2)n2ncc(C(=O)NC(C)C3CC3)c2n1 (centres unmarked) [III-48]	19.8 µg/mL (≈ 59 µM)
Cc1cc(-c2cccnc2)nc2c(C(=O)NC(C)(C)C3CC3)cnn12 [III-18]	17.4 µg/mL (≈ 51.9 µM)
COc1cncc(-c2cc(C)n3ncc(C(=O)NC(C)C(F)(F)F)c3n2)c1 (centres unmarked) [III-270]	4.9 µg/mL (≈ 12.9 µM)
Cc1cc(-c2cccnc2F)nc2c(C(=O)NC(C3CC3)C(F)(F)F)cnn12 (centres unmarked) [III-85]	1 µg/mL (≈ 2.54 µM)
Cc1cc(NC2CC2)nc2c(C(=O)NC(C)C(F)(F)F)cnn12 (centres unmarked) [III-165]	4 µg/mL (≈ 12.2 µM)
Cc1cc(-c2cc(Cl)ccn2)nc2c(C(=O)NC(C3CC3)C(F)(F)F)cnn12 (centres unmarked) [III-207]	0.6 µg/mL (≈ 1.46 µM)
Cc1cc(-c2cccc(-c3ncccn3)c2)nc2c(C(=O)NC(C3CC3)C(F)(F)F)cnn12 (centres unmarked) [III-417]	0.04 µg/mL (≈ 0.0884 µM)
Cc1cc(Cl)nc2c(C(=O)NC(C3CC3)C(F)(F)F)cnn12 (centres unmarked) [III-45]	10.2 µg/mL (≈ 30.7 µM)
COc1c(F)cccc1-c1cc(C)n2ncc(C(=O)N[C@@H](C)C3CC3)c2n1 [III-138]	2.5 µg/mL (≈ 6.79 µM)
Cc1cc(NC2CC2)nc2c(C(=O)NC(C3CC3)C(F)(F)F)cnn12 (centres unmarked) [III-44]	3 µg/mL (≈ 8.49 µM)
Cc1cc(N2CCCN(CC(F)(F)F)C2=O)nc2c(C(=O)NC(C3CC3)C(F)(F)F)cnn12 (centres unmarked) [III-260]	21 µg/mL (≈ 43.9 µM)
Cc1cc(-c2cncc(C#N)c2)nc2c(C(=O)N[C@H](C3CC3)C(F)(F)F)cnn12 [III-363]	1.7 µg/mL (≈ 4.25 µM)
COc1cc(F)ccc1-c1cc(C)n2ncc(C(=O)N[C@@H](C)C3CC3)c2n1 [III-146]	0.9 µg/mL (≈ 2.44 µM)
Cc1cc(-c2cscc2C#N)nc2c(C(=O)NC(C3CC3)C(F)(F)F)cnn12 (centres unmarked) [III-188]	0.3 µg/mL (≈ 0.74 µM)
Cc1cc(-c2cnccc2C(F)(F)F)nc2c(C(=O)N[C@@H](C3CC3)C(F)(F)F)cnn12 [III-354]	13.5 µg/mL (≈ 30.4 µM)
Cc1cc(-c2cccc(-c3ncccn3)n2)nc2c(C(=O)NC(C3CC3)C(F)(F)F)cnn12 (centres unmarked) [III-175]	1 µg/mL (≈ 2.21 µM)
Cc1cc(-c2cccc(C#N)n2)nc2c(C(=O)NC(C3CC3)C(F)(F)F)cnn12 (centres unmarked) [III-133]	0.2 µg/mL (≈ 0.5 µM)
